Experimental findings from US7199114B2, “Triterpene quaternary salts as biologically active surfactants” (The Regents of the University of Minnesota, priority 2002, dated 2007) are described below.

In brackets after ≈: the same amount, converted by molar mass. Where two headings read alike, the source gives them in different places.

The test system of experiment [1] is Enterococcus faecium Vancomycin-sensitive (second listed). Briefly: Anti-bacterial activity, broth culture MIC. It is filed as cell-based. The following applies: for MIC: read-out: Approximate Minimum Inhibitory Concentration, MIC. As for the experimental part: (§1) Several uncharged or negatively charged triterpenes, and several positively charged triterpenes of the invention were tested for anti-bacterial activity against antibiotic-susceptible and antibiotic resistant strains of four types of bacteria of concern in clinics and hospitals. The triterpenes weres tested in broth culture in triplicate for ability to inhibit bacterial growth. The compounds tested are those listed below.
(§2) The lowest concentration which inhibits bacterial growth is referred to as the minimum inhibitory concentration (MIC), the standard measurement of anti-microbial activity.

The test system of experiment [2] is Enterococcus faecium Vancomycin-sensitive (first listed). Briefly: Anti-bacterial activity, broth culture MIC. It is filed as cell-based. The following applies: for MIC: read-out: Approximate Minimum Inhibitory Concentration, MIC. As for the experimental part:
as §1, §2

For experiment [3], the system named is Staphylococcus aureus Methicillin-sensitive. Nature of the experiment: Anti-bacterial activity, broth culture MIC. Type of experiment: cell-based. The following applies: for MIC: read-out: Approximate Minimum Inhibitory Concentration, MIC. As for the experimental part:
as §1, §2

For experiment [4], the system named is Eschericia coli Ampicillin-resistant. Briefly: Anti-bacterial activity, broth culture MIC. It is filed as cell-based. The following applies: read-out: Approximate Minimum Inhibitory Concentration, MIC. As for the experimental part: as §1, §2
The test system of experiment [5] is Staphylococcus aureus Methicillin-resistant. Briefly: Anti-bacterial activity, broth culture MIC. It is filed as cell-based. The settings on record: for MIC: read-out: Approximate Minimum Inhibitory Concentration, MIC. As for the experimental part: as §1, §2
For the next experiment, the system named is dollar spot fungus. Nature of the experiment: Turf plot trial at Clemson University (Example 85), area affected by dollar spot. It is filed as in vivo, Agrostis stolonifera. The following applies: 50 grams active ingredient per 1000 square feet. As for the experimental part:
(§3) Plots of creeping bentgrass, cv. “Pennlinks,” were treated with water based sprays of the test compounds. Sprays were delivered by CO2-charged sprayer to deliver the equivalent of 2 gallons of spray per 1000 sq. ft of plot area. Plots were 15 sq. ft. each, and treatments were mixed to apply material to 75 sq. ft (5 replicates), although only 4 replicates were treated. […] Daconil Ultrex® was applied at 3.2 oz./1000 sq. ft. for 14 days. The experiment used a randomized complete block design, with 4 replicates per treatment. Disease pressure was high. Pennlinks […] is moderately to highly susceptible to both dollar spot and brown patch. For brown patch, caused by Rhozoctonia sofani. a visual estimate of the percent of the plot area affected was recorded. Turf quality was estimated on a 1 to 9 scale, with 1 being worst and 9 being perfect. A rating of 6 is considered acceptable.
(§4) Plots of creeping bentgrass, cv. Pennlinks, were treated with water-based sprays as in Example 84 at Clemson University. Treatment application dates were May 7. May 14, May 28, and June 11. Plots were rated visually, estimating the percent of the area affected by dollar spot fungus […]. Turf quality was rated on a 1 to 9 scale, with 9 being perfect turf, as in Example 84. Disease pressure was moderately high to high when the trial was initiated, with existing dollar spot present.

Experiment [6] in a line: Turf plot trial at Clemson University (Example 85), turf quality. Type of experiment: in vivo, creeping bentgrass, cv. Pennlinks. The settings on record: 1 to 9 scale, 50 grams active ingredient per 1000 square feet. As for the experimental part:
as §3, §4

The subject of the next experiment is dollar spot. Briefly: Antifungal treatment on turf grass plots (Example 84), dollar spot count. Type of experiment: in vivo. The settings on record: Table 3 experiment, 17.8 g/1000 sq. ft. (Daconil Ultrex 3.2 oz./1000 sq. ft.). As for the experimental part: (§5) Plots of creeping bentgrass, cv. “Pennlinks,” were treated with water based sprays of the test compounds. Sprays were delivered by CO2-charged sprayer to deliver the equivalent of 2 gallons of spray per 1000 sq. ft of plot area. Plots were 15 sq. ft. each, and treatments were mixed to apply material to 75 sq. ft (5 replicates), although only 4 replicates were treated. The quaternary salts of triterpenes were applied at 17.8 g/1000 sq. ft. for 14 days. Daconil Ultrex® was applied at 3.2 oz./1000 sq. ft. for 14 days. The experiment used a randomized complete block design, with 4 replicates per treatment. Disease pressure was high. Pennlinks […] is moderately to highly susceptible to both dollar spot and brown patch. For brown patch, caused by Rhozoctonia sofani. a visual estimate of the percent of the plot area affected was recorded. Turf quality was estimated on a 1 to 9 scale, with 1 being worst and 9 being perfect. A rating of 6 is considered acceptable.

Experiment [7] in a line: Antifungal treatment on turf grass plots (Example 84), turf quality. It is filed as in vivo, creeping bentgrass, cv. Pennlinks. The following applies: Table 3 experiment, 1 to 9 scale, 9 perfect, 17.8 g/1000 sq. ft. (Daconil Ultrex 3.2 oz./1000 sq. ft.). As for the experimental part:
as §5

For experiment [8], the system named is brown patch, caused by Rhozoctonia sofani. Nature of the experiment: Antifungal treatment on turf grass plots (Example 84), brown patch. It is filed as in vivo. The following applies: Table 3 experiment, 17.8 g/1000 sq. ft. (Daconil Ultrex 3.2 oz./1000 sq. ft.). As for the experimental part:
as §5

[9] abbreviates: Enterococcus faecium Vancomycin-sensitive (r13/r14), broth culture, triplicate.
[10] abbreviates: Enterococcus faecium Vancomycin-sensitive (r11/r12), broth culture, triplicate.
The mark [11] stands for this setting: Staphylococcus aureus Methicillin-sensitive, broth culture, triplicate.
[12] abbreviates: Staphylococcus aureus Methicillin-resistant, broth culture, triplicate.

Turning to `C=C(C)C1CCC2(C)CCC3(C)C(CCC4C5(C)CCC(OC(=O)C=CC(=O)O)C(C)(C)C5CCC43C)C12` (stereo not drawn) [Compound 86, lupeol-3-maleate, reference compound], the “Approximate Minimum Inhibitory Concentration, MIC” value in experiment [1] (setting [9]) was 50 µg/mL; in experiment [2] (setting [10]), 10 µg/mL; in experiment [2] (Enterococcus faecium Vancomycin-sensitive (r11/r12), broth culture, triplicate, listed as lupeol-3-maleate) it was no more than 10 µg/mL.
As for `C=C(C)C1CCC2(COC(=O)CCC(=O)O)CC[C@@]3(C)C(CCC4[C@@]5(C)CCC(O)C(C)(C)C5CC[C@]43C)C12` (stereo partly drawn) [Compound 92, betulin-28-succinate, reference compound], the “Approximate Minimum Inhibitory Concentration, MIC” value in experiment [3] (setting [11]) was 50 µg/mL.
In the case of `Br.C=C(C[n+]1ccc(N(C)C)cc1)[C@@H]1CC[C@]2(COC(C)=O)CC[C@]3(C)C(CCC4[C@@]5(C)CC[C@H](OC(C)=O)C(C)(C)C5CC[C@]43C)C12` (stereo partly drawn) [Compound 12, 1-(3,28-(diacetoxy)lup-20(29)-ene-30-yl)4-(dimethylamino)pyridinium bromide], the MIC in experiment [4] is 50 µg/mL; in experiment [1] (Enterococcus faecium), 2 µg/mL; in experiment [5] (Staphylococcus aureus) it was 5 µg/mL; in [2] (Enterococcus faecium) it was 2 µg/mL; in experiment [3] (Staphylococcus aureus), 2 µg/mL.
In the case of `C=C(C)C1CCC2(COC(=O)CCC(=O)O)CC[C@@]3(C)C(CCC4[C@@]5(C)CCC(OC(=O)CCC(=O)O)C(C)(C)C5CC[C@]43C)C12` (stereo partly drawn) [Compound 91, betulin-3,28-disuccinate, reference compound], in experiment [3] (setting [11]), the “Approximate Minimum Inhibitory Concentration, MIC” value came out at 200 µg/mL.
Consider `C=C(C)[C@@H]1CC[C@]2(C)CC[C@]3(C)[C@H](CC[C@@H]4[C@@]5(C)C=C(O)C(=O)C(C)(C)[C@@H]5CC[C@]43C)[C@@H]12` [Compound 85, lupeneno-1-ene-2-ol, reference compound], for which the MIC amounted to 50 µg/mL (≈ 114 µM) in experiment [1] (setting [9]), 100 µg/mL (≈ 228 µM) in [5] (setting [12]), 20 µg/mL (≈ 45.6 µM) in experiment [2] (setting [10]) and 50 µg/mL (≈ 114 µM) in [3] (setting [11]).
`C=C(C)[C@@H]1CC[C@]2(COC(=O)C(C)[N+]34CCN(CC3)CC4)CC[C@]3(C)C(CCC4[C@@]5(C)CC[C@H](OC(=O)C(C)[N+]67CCN(CC6)CC7)C(C)(C)C5CC[C@]43C)C12.Cl.Cl` (stereo partly drawn) [Compound 22, Lup-20(29)-ene-3,28-bis[N-(1,4-diazabicyclo [2.2.2]octyl)-2-propionate]-dichloride]: the “% of area infected” value was found to be 24.5 a % in the experiment on dollar spot fungus (Table 5 c2, Jun. 3, 2002); 17.3 ab % in the experiment on dollar spot fungus (Table 5 c4, Jun. 3, 2002); 34.3 a % in the experiment with dollar spot fungus (Table 6, May 8, 2002); 28.5 a % with dollar spot fungus (Table 6, May 13, 2002); 31.5 bc % in the experiment on dollar spot fungus (Table 6, May 20, 2002); 32.0 ab % in the experiment on dollar spot fungus (Table 6, May 27, 2002). The Turf quality in [6] (Table 5, Jun. 3, 2002) was determined as 4.80 abc; in [6] (Table 5, Jun. 17, 2002) it was 5.07 ab; in [6] (Table 5, May 27, 2002), 3.05 b; in experiment [6] (Table 6, May 8, 2002), 3.00 a; in [6] (Table 6, May 13, 2002) it was 3.13 a; in experiment [6] (Table 6, May 20, 2002) it was 2.95 ab.
On to `C=C(C)[C@@H]1CC[C@]2(COC(=O)/C=C\C(=O)O)CC[C@]3(C)[C@H](CC[C@@H]4[C@@]5(C)CC[C@H](O)C(C)(C)[C@@H]5CC[C@]43C)[C@@H]12` [Compound 94, betulin-28-maleate, reference compound], for which the “Approximate Minimum Inhibitory Concentration, MIC” value in [1] (setting [9]) amounted to 200 µg/mL; in experiment [2] (setting [10]), 200 µg/mL; in experiment [3] (setting [11]) it was 50 µg/mL.
As for `C=C(C[N+]12CCN(CC1)CC2)[C@@H]1CC[C@]2(COC(C)=O)CC[C@]3(C)C(CCC4[C@@]5(C)CC[C@H](OC(C)=O)C(C)(C)C5CC[C@]43C)C12.[Br-]` (stereo partly drawn) [Compound 18, 1-[3,28-(diacetoxy)lup-20(29)-ene-30-yl]-1,4-diazabicyclo[2.2.2]octane bromide], the MIC in [1] (Enterococcus faecium), in [5] (Staphylococcus aureus), in experiment [2] (Enterococcus faecium) and in experiment [3] (Staphylococcus aureus) was 5 µg/mL throughout. For the same compound, the “Dollar Spot # of spots per plot” value is listed as 20.8 spots per plot in the experiment on dollar spot (Jul. 2, 2001); 14.3 spots per plot in the experiment on dollar spot (Jul. 9, 2001); 1.8 spots per plot in the experiment with dollar spot (Jul. 16, 2001); 16.8 spots per plot in the experiment with dollar spot (Jun. 25, 2001). In addition, the “Turf quality” value is on record as 4.63 in [7] (Jul. 2, 2001); 5.50 in experiment [7] (Jul. 9, 2001); 4.63 in experiment [7] (Jun. 25, 2001). Moreover, the “Brown Patch % of plot infected” value in experiment [8] (Jul. 2, 2001) is 37.5%; in experiment [8] (Jul. 9, 2001) it was “significantly suppress brown patch”; in [8] (Jul. 9, 2001, listed as Comp. 18) it was 12.0%; in experiment [8] (Jul. 16, 2001), 6.3%; in experiment [8] (Jun. 25, 2001) it was 14.8%.
Turning to `C=C(C)[C@@H]1CC[C@]2(COC(=O)/C=C\C(=O)O)CC[C@]3(C)[C@H](CC[C@@H]4[C@@]5(C)CC[C@H](OC(=O)/C=C\C(=O)O)C(C)(C)[C@@H]5CC[C@]43C)[C@@H]12` [Compound 93, betulin-3,28-dimaleate, reference compound], the “Approximate Minimum Inhibitory Concentration, MIC” value in experiment [5] (setting [12]) and in [3] (setting [11]) was 200 µg/mL in each case.
In the case of `C=C(C)[C@@H]1CC[C@]2(CO)CC[C@]3(C)C(CCC4[C@@]5(C)CC[C@H](OC(=O)C[N+]67CCN(CC6)CC7)C(C)(C)C5CC[C@]43C)C12.[Cl-]` (stereo partly drawn) [Compound 6], the MIC in experiment [1] (setting [9]) was 10 µg/mL; in [5] (setting [12]), 2 µg/mL; in experiment [2] (setting [10]), 5 µg/mL; in [3] (setting [11]), 2 µg/mL.
